Experimental data from US10407467B2, “Polymyxin derivatives and their use in combination therapy together with different antibiotics” (priority 2013, dated 2019).
Numbered stars: 1 amine (or outer) side, 2 acyl side, 3 side chain; on linkers, the order of the positions; unused ones are H or OH. Bridge positions count the residues as written; N and C are the ends. Square brackets hold non-standard residues; d marks the D form. Peptide text beside a SMILES is read from it. * marks the point of attachment. ξ: configuration not given here. Cyclohexanoyl(cis-4-NH2) = N[C@H]1CC[C@@H](C(=O)*)CC1; GABA(4S-Me) = C[C@@H](CCC(=O)[*:2])N[*:1]; NMeGABA = CN(CCCC(=O)[*:2])[*:1]; Thr(3ξ) = CC(O)[C@H](N)C(=O)O; Propanoyl(3-OH) = O=C(CCO)*; Dab = NCC[C@H](N)C(=O)O; X16 = CN(C)CCCC(=O)*; Glycolyl = O=C(CO)*; X15 = O=C(C1CCNC1)*; Ava = NCCCCC(=O)O

Key:
Format in all cases: cell-based
Escherichia coli = assay: MIC, sole activity (no second agent); details: in the absence of Rifampicin; for MIC E. coli ATCC25922: strain ATCC25922
Outline: (§1)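 First, isolated colonies grown 18-24 hours on Mueller-Hinton agar were suspended to 0.5 McFarland; next, up to four strains per pathogen were tested in duplicate in cation-adjusted MHB; finally, the lower concordant value or modal repeat value was reported against Polymyxin B.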

Klebsiella pneumoniae [1] = assay: MIC, sole activity (no second agent); details: in the absence of Rifampicin; strain ATCC 4352
Outline: as §1

Pseudomonas aeruginosa [2] = assay: MIC, sole activity (no second agent); details: in the absence of Rifampicin; for MIC P. aeruginosa ATCC 27853: strain ATCC27853; for MIC P. aeruginosa ATCCCRM-9027: strain ATCCCRM-9027
Outline: as §1

Acinetobacter baumannii [3] = assay: MIC, compound in combination with a second agent (broth microdilution); details: 1:1 (wt:wt) combination with Rifampicin, MIC = total drug concentration; for MIC A. baumannii NCTC 13424: strain NCTC 13424
Procedure: (§2) To evaluate the potency and spectrum of the compounds both alone and in combination with another agent, susceptibility testing was performed against up to four strains of each of the four Gram negative pathogens, Escherichia coli, Pseudomonas aeruginosa, Klebsiella pneumoniae and Acinetobacter baumannii.
(§3) Ratios of components in a combination, such as 1:1, refers to a weight to weight ratio. The minimum inhibitory concentration (MIC) refers to the total drug concentration (e.g. test compound plus second agent, such as Rifampicin).
(§4) The inoculum was prepared by making a direct suspension of isolated colonies (selected from an 18-24 hour Mueller-Hinton agar plate) adjusted to the 0.5 McFarland standard.
(§5) The assays were performed in duplicate.
(§6) In cases where the duplicate values varied by less than 2-fold, the lower of the two values is reported. If a variation of greater than 2-fold was observed, the assay was considered non-valid. Several of the compounds were subjected to multiple tests, and where this is the case, the MIC reflects the modal value obtained.
(§7) The minimum inhibitory concentration refers to the total drug concentration (e.g. test compound plus Rifampicin). The compounds are used at equal mass within the combination. The weight refers to the mass of compound as used, for example the Example Compounds are used in their TFA or sulphate salt forms.
(§8) MICs refer to the total drug concentration. Thus, where a 1:1 combination is used, this is the amount of the test compound plus the second agent. For comparison, the MIC values for the second agent alone are also given.

Klebsiella pneumoniae [4] = assay: as above; details: 1:1 (wt:wt) combination with Rifampicin, MIC = total drug concentration; for MIC K. pneumoniae ATCC-BAA-2146: strain ATCC-BAA-2146; for MIC K. pneumoniae CCUG-59348: strain CCUG-59348; for MIC K. pneumoniae NCTC 13438: strain NCTC 13438
Procedure: as §2, §3, §4, §5, §6, §7, §8

Pseudomonas aeruginosa [5] = assay: as above; details: 1:1 (wt:wt) combination with Rifampicin, MIC = total drug concentration; for MIC P. aeruginosa CCUG 59626: strain CCUG 59626
Procedure: as §2, §3, §4, §5, §6, §7, §8

Acinetobacter baumannii [6] = assay: MIC, sole activity (no second agent); details: in the absence of Rifampicin; for MIC A. baumannii ATCCBAA-747: strain ATCCBAA-747; for MIC A. baumannii NCTC 13423: strain NCTC13423
Outline: as §1

Row | SMILES | MIC E. coli ATCC25922 (Escherichia coli) | MIC K. pneumoniae ATCC 4352 (Klebsiella pneumoniae [1]) | MIC P. aeruginosa ATCC 27853 (Pseudomonas aeruginosa [2]) | MIC A. baumannii NCTC 13424 (Acinetobacter baumannii [3]) | MIC K. pneumoniae ATCC-BAA-2146 (Klebsiella pneumoniae [4]) | MIC K. pneumoniae CCUG-59348 (Klebsiella pneumoniae [4]) | MIC P. aeruginosa CCUG 59626 (Pseudomonas aeruginosa [5]) | MIC E. coli NCTC9001 (Escherichia coli; strain NCTC9001) | MIC A. baumannii ATCCBAA-747 (Acinetobacter baumannii [6]) | MIC A. baumannii NCTC 13423 (Acinetobacter baumannii [6]) | MIC P. aeruginosa ATCCCRM-9027 (Pseudomonas aeruginosa [2]) | MIC K. pneumoniae NCTC 13438 (Klebsiella pneumoniae [4]) | MIC P. aeruginosa ATCC CRM-9027 (Pseudomonas aeruginosa [5]; strain ATCC CRM-9027) | MIC A. baumannii CCUG57249 (Acinetobacter baumannii [3]; strain CCUG57249) | MIC P. aeruginosa ATCC-47 (Pseudomonas aeruginosa [5]; strain ATCC-47)
1 | CC(C)C[C@@H]1NC(=O)[C@@H](Cc2ccccc2)NC(=O)[C@H](CCN)NC(=O)[C@@H](NC(=O)[C@H](CCN)NC(=O)[C@@H](NC(=O)CC(C)O)C(C)O)CCNC(=O)[C@H](C(C)O)NC(=O)[C@H](CCN)NC(=O)[C@H](CCN)NC1=O (mixture of isomers) [Example 15, 3(RS)-3- Hydroxybutanoyl polymyxin B nonapeptide] | 4 micrograms/mL | 8 micrograms/mL | 0.5 micrograms/mL | 0.5 micrograms/mL | 4 micrograms/mL | 16 micrograms/mL | 0.5 micrograms/mL |  |  |  |  |  |  |  | 
2 | CC(C)C[C@@H]1NC(=O)[C@@H](Cc2ccccc2)NC(=O)[C@H](CCN)NC(=O)[C@@H](NC(=O)[C@H](CCN)NC(=O)[C@@H](NC(=O)CCCCN)C(C)O)CCNC(=O)[C@H](C(C)O)NC(=O)[C@H](CCN)NC(=O)[C@H](CCN)NC1=O (some centres unmarked) [Example 6, 5-Aminopentanoyl polymyxin B nonapeptide] (H-[Ava][Thr(3ξ)][Dab][Dab][Dab][dF]L[Dab][Dab][Thr(3ξ)]; lactam 4-C) | 2 micrograms/mL | 0.5 micrograms/mL | 0.25 micrograms/mL |  |  | 4 micrograms/mL | ≤0.06 micrograms/mL | 2 micrograms/mL | 8 micrograms/mL | 4 micrograms/mL | 0.125 micrograms/mL |  |  |  | 
3 | CC(C)C[C@@H]1NC(=O)[C@@H](Cc2ccccc2)NC(=O)[C@H](CCN)NC(=O)[C@@H](NC(=O)[C@H](CCN)NC(=O)[C@@H](NC(=O)CO)C(C)O)CCNC(=O)[C@H](C(C)O)NC(=O)[C@H](CCN)NC(=O)[C@H](CCN)NC1=O (some centres unmarked) [Example 8, Hydroxyacetyl polymyxin B nonapeptide] (Glycolyl-[Thr(3ξ)][Dab][Dab][Dab][dF]L[Dab][Dab][Thr(3ξ)]; lactam 3-C) | 32 micrograms/mL | 8 micrograms/mL | 0.25 micrograms/mL | 0.5 micrograms/mL | 2 micrograms/mL | 8 micrograms/mL | 0.25 micrograms/mL |  |  |  |  |  |  |  | 
4 | CC(C)C[C@@H]1NC(=O)[C@@H](Cc2ccccc2)NC(=O)[C@H](CCN)NC(=O)[C@@H](NC(=O)[C@H](CCN)NC(=O)[C@@H](NC(=O)C2CCNC2)C(C)O)CCNC(=O)[C@H](C(C)O)NC(=O)[C@H](CCN)NC(=O)[C@H](CCN)NC1=O (stereo partly drawn) [Example 9, [3(R,S)-Pyrrolidine-3-carbonyl]polymyxin B nonapeptide] (X15-[Thr(3ξ)][Dab][Dab][Dab][dF]L[Dab][Dab][Thr(3ξ)]; lactam 3-C) | 0.5 micrograms/mL | 0.5 micrograms/mL | 0.25 micrograms/mL |  | 1 micrograms/mL | 8 micrograms/mL | 0.125 micrograms/mL |  | 4 micrograms/mL | 2 micrograms/mL | 2 micrograms/mL | 0.25 micrograms/mL |  |  | 
5 | CC(C)C[C@@H]1NC(=O)[C@@H](Cc2ccccc2)NC(=O)[C@H](CCN)NC(=O)[C@@H](NC(=O)[C@H](CCN)NC(=O)[C@@H](NC(=O)CCCN(C)C)C(C)O)CCNC(=O)[C@H](C(C)O)NC(=O)[C@H](CCN)NC(=O)[C@H](CCN)NC1=O (some centres unmarked) [Example 11, 4-(N,N-dimethylamino)-butanoyl polymyxin B nonapeptide] (X16-[Thr(3ξ)][Dab][Dab][Dab][dF]L[Dab][Dab][Thr(3ξ)]; lactam 3-C) | 0.5 micrograms/mL | 0.5 micrograms/mL | 0.125 micrograms/mL |  | 0.5 micrograms/mL | 4 micrograms/mL | 0.25 micrograms/mL |  | 16 micrograms/mL | 4 micrograms/mL | 2 micrograms/mL | 1 micrograms/mL |  |  | 
6 | CNCCCC(=O)N[C@H](C(=O)N[C@@H](CCN)C(=O)N[C@H]1CCNC(=O)[C@H](C(C)O)NC(=O)[C@H](CCN)NC(=O)[C@H](CCN)NC(=O)[C@H](CC(C)C)NC(=O)[C@@H](Cc2ccccc2)NC(=O)[C@H](CCN)NC1=O)C(C)O (some centres unmarked) [Example 16, 4-(N-methylamino)-butanoyl polymyxin B nonapeptide] (NMeGABA-[Thr(3ξ)][Dab][Dab][Dab][dF]L[Dab][Dab][Thr(3ξ)]; lactam 3-C) | 0.5 micrograms/mL | 0.5 micrograms/mL | 0.25 micrograms/mL | 0.125 micrograms/mL |  |  | 0.125 micrograms/mL |  |  |  |  | 0.5 micrograms/mL | 0.125 micrograms/mL |  | 
7 | CC(C)C[C@@H]1NC(=O)[C@@H](Cc2ccccc2)NC(=O)[C@H](CCN)NC(=O)[C@@H](NC(=O)[C@H](CCN)NC(=O)[C@@H](NC(=O)[C@H]2CC[C@@H](N)CC2)C(C)O)CCNC(=O)[C@H](C(C)O)NC(=O)[C@H](CCN)NC(=O)[C@H](CCN)NC1=O (stereo partly drawn) [Example 20, Cis-4-aminocyclohexane carbonyl polymyxin B nonapeptide] ({Cyclohexanoyl(cis-4-NH2)}-[Thr(3ξ)][Dab][Dab][Dab][dF]L[Dab][Dab][Thr(3ξ)]; lactam 3-C) | 2 micrograms/mL | 0.125 micrograms/mL | 0.125 micrograms/mL | <0.06 micrograms/mL | 0.25 micrograms/mL | 4 micrograms/mL | 0.125 micrograms/mL |  |  |  |  | 0.25 micrograms/mL |  | ≤0.06 micrograms/mL | 0.125 micrograms/mL
8 | CC(C)C[C@@H]1NC(=O)[C@@H](Cc2ccccc2)NC(=O)[C@H](CCN)NC(=O)[C@@H](NC(=O)[C@H](CCN)NC(=O)[C@@H](NC(=O)CC[C@H](C)N)C(C)O)CCNC(=O)[C@H](C(C)O)NC(=O)[C@H](CCN)NC(=O)[C@H](CCN)NC1=O (stereo partly drawn) [Example 24, 4S-aminopentanoyl polymyxin B nonapeptide] ({GABA(4S-Me)}-[Thr(3ξ)][Dab][Dab][Dab][dF]L[Dab][Dab][Thr(3ξ)]; lactam 3-C) | >32 micrograms/mL | 0.5 micrograms/mL | 0.25 micrograms/mL | 0.5 micrograms/mL | 0.5 micrograms/mL | 8 micrograms/mL | 0.25 micrograms/mL |  |  |  |  |  |  |  | 
9 | CC(C)C[C@@H]1NC(=O)[C@@H](Cc2ccccc2)NC(=O)[C@H](CCN)NC(=O)[C@@H](NC(=O)[C@H](CCN)NC(=O)[C@@H](NC(=O)CCO)C(C)O)CCNC(=O)[C@H](C(C)O)NC(=O)[C@H](CCN)NC(=O)[C@H](CCN)NC1=O (some centres unmarked) [Example 26, 3-Hydroxypropanoyl polymyxinB nonapeptide] ({Propanoyl(3-OH)}-[Thr(3ξ)][Dab][Dab][Dab][dF]L[Dab][Dab][Thr(3ξ)]; lactam 3-C) | >32 micrograms/mL | 4 micrograms/mL | 0.5 micrograms/mL | 0.5 micrograms/mL | 2 micrograms/mL | 8 micrograms/mL | 0.25 micrograms/mL |  |  |  |  |  |  |  | 
